The record followed here is patent publication US8420144B2, “Kokumi-imparting agent, method of using, and compositions containing same” (Ajinomoto Co., Inc., priority 2005, dated 2013).

The target of one assay is T1, human CaSR (Homo sapiens, UniProt P41180).
T1 construct: expressed in transfected cells; host or cells: HEK 293 cells, transient transfection of a CMV-promoter expression vector
T1 sequence (P41180 20-1078): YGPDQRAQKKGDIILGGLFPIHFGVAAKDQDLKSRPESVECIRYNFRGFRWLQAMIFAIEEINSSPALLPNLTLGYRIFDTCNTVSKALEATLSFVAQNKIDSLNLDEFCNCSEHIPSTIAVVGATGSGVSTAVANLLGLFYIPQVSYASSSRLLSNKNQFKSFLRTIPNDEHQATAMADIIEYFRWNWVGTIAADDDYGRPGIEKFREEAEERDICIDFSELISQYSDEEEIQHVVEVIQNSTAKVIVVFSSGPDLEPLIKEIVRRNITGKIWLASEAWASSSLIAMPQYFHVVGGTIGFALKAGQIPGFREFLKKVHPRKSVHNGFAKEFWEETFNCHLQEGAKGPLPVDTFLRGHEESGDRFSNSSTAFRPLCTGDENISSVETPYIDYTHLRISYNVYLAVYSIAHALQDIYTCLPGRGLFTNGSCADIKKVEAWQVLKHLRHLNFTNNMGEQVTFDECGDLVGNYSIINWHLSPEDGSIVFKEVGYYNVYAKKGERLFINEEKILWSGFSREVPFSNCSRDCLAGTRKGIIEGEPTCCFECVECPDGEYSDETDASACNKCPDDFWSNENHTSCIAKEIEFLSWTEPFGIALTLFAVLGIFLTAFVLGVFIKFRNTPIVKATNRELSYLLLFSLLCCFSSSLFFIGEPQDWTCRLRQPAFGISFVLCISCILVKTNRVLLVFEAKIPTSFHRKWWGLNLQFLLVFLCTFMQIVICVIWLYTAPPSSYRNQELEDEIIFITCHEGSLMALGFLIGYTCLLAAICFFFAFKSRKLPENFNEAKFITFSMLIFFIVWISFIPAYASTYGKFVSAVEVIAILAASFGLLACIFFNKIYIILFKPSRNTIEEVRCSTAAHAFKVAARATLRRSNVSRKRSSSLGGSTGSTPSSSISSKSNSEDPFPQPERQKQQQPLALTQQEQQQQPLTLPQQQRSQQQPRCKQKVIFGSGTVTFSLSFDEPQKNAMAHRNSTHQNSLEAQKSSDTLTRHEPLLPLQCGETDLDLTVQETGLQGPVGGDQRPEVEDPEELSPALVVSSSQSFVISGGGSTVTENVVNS
In words: Calcium receptor (CaSR) activation activity: calcium imaging in HEK 293 cells expressing human CaSR. In kind it is cell-based. Particulars: concentration giving 50% of the maximal activity; single values n = 1, others n = 2 or 3. As to the method: Calcium receptor (CaSR) activation activity of peptides obtained in Examples 2, 3, and 5-12 were measured as follows. A cDNA of human CaSR obtained in Example 1 of WO2007/055393A1 was inserted into an expression vector for an animal cell having a CMV promoter, and the cDNA in the vector was introduced into HEK 293 cells, which had multiplied to 70% of the maximal cell density, using FuGINE6 (Roche Ltd.). After culturing the cells for 4 to 48 hours, 0.6-1.0×10^5 of cells/well were disseminated into a 96-well plate, subsequently, the cells were cultured for one day, and then stained using Calcium 3 Assay Kit. The presence or absence of a calcium receptor activation activity of each peptide was confirmed by a calcium imaging method using FLEXSTATION (Molecular Devices Inc., instruction manual). Furthermore, the concentration of each peptide giving 50% of the maximal activity (EC50) was calculated using a dose characteristic curve.

The nature of assay [1]: Quantitative sensory evaluation test: kokumi-imparting activity of peptides combined with known calcium receptor activators or additives. It is filed as in vivo, human. The following applies: alone; for Intensity of kokumi: Aftertaste / Intensity of kokumi: First and middle taste: n=12, 0 control, 3 intense, 6 extremely intense. As to the method:
The intensity of the kokumi-imparting activity of each peptide having confirmed calcium receptor activation activity and a known calcium receptor activator used in combination was measured by a quantitative sensory evaluation test, performed as follows: Samples of γ-Glu-Cys-Gly (glutathione) or γ-Glu-Val-Gly (0.0001 to 1 g/dl), or these samples combined with a calcium receptor activator such as calcium lactate, protamine or polylysine, or GABA (addition concentration: 0.0001 to 1 g/dl) were added to distilled water containing sodium glutamate (0.05 g/dl), inosine monophosphate (0.05 g/dl), and sodium chloride (0.5 g/dl), and the intensity of the kokumi-imparting activity was measured. Sample solutions that became acidic after dissolution of the samples were adjusted to pH 6.8 to 7.2 with NaOH before use. Sensory evaluation scores were used to evaluate as follows: 0 points for the control sample, 3 points for intense activity (as intensity of 0.05 g/dl γ-Glu-Cys-Gly and 0.005 g/dl γ-Glu-Val-Gly), and 6 points for extremely intense activity (as twice intensity of 0.05 g/dl γ-Glu-Cys-Gly and 0.005 g/dl γ-Glu-Val-Gly), and the test was performed with n=12.

Numbered stars: 1 amine (or outer) side, 2 acyl side, 3 side chain; on linkers, the order of the positions; unused ones are H or OH. Square brackets hold non-standard residues; d marks the D form. Peptide text beside a SMILES is read from it. γGlu = O=C(O)[C@H](CCC(=O)[*:2])N[*:1]; Tle = CC(C)(C)[C@H](N)C(=O)O

For the compound `CC(C)(C)[C@H](NC(=O)CC[C@H](N)C(=O)O)C(=O)OCC(=O)O` [γ-Glu-t-Leu-GlyA], the EC50 on human CaSR was determined as 50 nM.

Polylysine: in assay [1] (0.001 g/dl), the Evaluation remarks entry is listed as “Thickness”; the “Intensity of kokumi: Aftertaste” value is reported as 0.5 points; the “Intensity of kokumi: First and middle taste” value stood at 0.5 points.

With `CC(C)(S)[C@H](NC(=O)CC[C@H](N)C(=O)O)C(=O)NCC(=O)O` [γ-Glu-Pen-Gly], on human CaSR, the EC50 was in the range of 159 to 233 nM.

As for `NCCCC(=O)O` [GABA], in assay [1] (0.025 g/dl), the Evaluation remarks result was “Thickness”; the “Intensity of kokumi: Aftertaste” value came out at 0.5 points; the “Intensity of kokumi: First and middle taste” value is on record as 0.5 points. Turning to `CC[C@H](NC(=O)CC[C@H](N)C(=O)O)C(=O)OCC(=O)O` [γ-Glu-Abu-GlyA], on human CaSR, the EC50 lay within 65 to 79 nM. Regarding `CC(C)(C)[C@H](NC(=O)CC[C@H](N)C(=O)O)C(=O)NCC(=O)O` [γ-Glu-t-Leu-Gly] (γGlu-[Tle]-Gly-OH), the EC50 on human CaSR was 43 to 77 nM. On to `CC(C)[C@H](NC(=O)CC[C@H](N)C(=O)O)C(=O)O[C@@H](C)C(=O)O` [γ-Glu-Val-LacA], for which the EC50 at human CaSR was found to be 57 nM. Turning to `CC(O)C(=O)[O-].CC(O)C(=O)[O-].[Ca+2]` (stereo not drawn) [Calcium lactate], in assay [1] (0.25 g/dl), the Evaluation remarks result is “Thickness”; the “Intensity of kokumi: Aftertaste” value was 0.5 points; the “Intensity of kokumi: First and middle taste” value is 0.5 points. Regarding `CC[C@H](NC(=O)CC[C@H](N)C(=O)O)C(=O)O[C@@H](C)C(=O)O` [γ-Glu-Abu-LacA], at human CaSR, the EC50 was determined as 102 nM. `C[C@H](OC(=O)[C@@H](NC(=O)CC[C@H](N)C(=O)O)C(C)(C)C)C(=O)O` [γ-Glu-t-Leu-LacA]: at human CaSR, the EC50 is 38 nM. Turning to `CC(C)(NC(=O)CC[C@H](N)C(=O)O)C(=O)NCC(=O)O` [γ-Glu-Aib-Gly], the concentration giving a half-maximal response (EC50) at human CaSR was in the range of 349 to 1170 nM.

As to `N[C@@H](CCC(=O)NC1(C(=O)NCC(=O)O)CCCC1)C(=O)O` [γ-Glu-Cle-Gly], the EC50 at human CaSR fell in the range of 500 to 1500 nM. For the compound Protamine, in assay [1] (0.005 g/dl), the “Intensity of kokumi: Aftertaste” value came to 1.0 points; the “Intensity of kokumi: First and middle taste” value came out at 1.5 points.

Turning to `CC(C)[C@H](NC(=O)CC[C@H](N)C(=O)O)C(=O)OCC(=O)O` [γ-Glu-Val-GlyA], the EC50 at human CaSR came to 140 nM.
